Legend:
HCC1937 cells = test: Cell proliferation by live-cell imaging (IncuCyte), HCC1937 TNBC cells; assay type: cell-based; conditions: 40 μM, 72 h
Protocol: As TNBC is a highly heterogeneous subgroup, including breast cancers with different molecular and phenotypic traits,[37] effects of compounds 5–10 on cell proliferation were also tested in additional TNBC cell lines, i.e., HCC1806 and HCC1937. As inhibitors of HCC1806 TNBC cells, compounds 5–10 were evaluated in parallel with compounds 3, ICG-001, and iCRT3 (Figures 10 and S12–S19, Supporting Information); as inhibitors of the HCC1937 TNBC cells, 5–10 were compared with 3 and iCRT3 (Figures 10, S20, and S21). Effects on cell proliferation were evaluated as above for the MDA-MB-231 TNBC cells at the latest time point of observation of 72 h.
Figure 10 Inhibition of MDA-MB-231, HCC1806, and HCC1937 TNBC cell growth by compounds 5–10 and reference compounds 3, […], and iCRT3 at 40 μM. Cell growth inhibition was quantified using the IncuCyte cell-by-cell analysis software, by comparison with the growth of DMSO-treated cells at 72 h, set at 100% (mean ± SD, n = 3, one-way ANOVA, **p ≤ 0.01, ****p ≤ 0.0001).
Cell proliferation of breast cancer cell lines upon continuous treatment with select compounds was evaluated by the real-time quantitative live-cell imaging system. MDA-MB-231 (1500 cells/well), HCC1806 (2000 cells/well), and HCC1937 (3000 cells/well) were seeded in 96-well plates, treated with increasing doses of selected compounds and images (5 images/well) were acquired every 8 h for 3 days at 10× magnification in an IncuCyte SX5 live-content imaging system (Essen Bioscience) at 37 °C with 5% CO2. Images were analyzed using IncuCyte cell-by-cell analysis software to detect and quantify live cells (phase-contrast). The number of cells at each time point was quantified using IncuCyte cell-by-cell analysis software, and cell growth was evaluated as the normalized ratio between counted cells at each time point normalized to those counted at time 0. Graph drawing and statistical analyses were performed in GraphPad Prism according to the statistical tests described in the figure legends.

Fgf20 and Sal4 = test: Wnt-target gene mRNA levels (qPCR) in LiCl-treated HCT116 cells; assay type: cell-based, human; conditions: HCT116, LiCl 50 mM, 24 h, 10 μM
Protocol: To this end, HCT116 cells were treated for 24 h with 50 mM LiCl and increasing concentrations (10–50–100 μM) of the two compounds.
HCT116 was treated with LiCl (50 mM) and 10 μM compound 9 or 10 for 24 h. Fgf20, Sall4 (Wnt-target genes) mRNA levels were measured by qPCR and normalized to the expression of β-actin mRNA. Results are expressed as fold change relative to the control sample and represent the mean ± SD of three independent experiments, each performed in triplicate. *p < 0.05, **p < 0.01, ***p < 0.001 as determined by ANOVA.

SW480 cells = test: Cell viability (XTT) of SW480 colon cancer cells; assay type: cell-based
Protocol: PKCδ has been recognized to be a proapoptotic kinase; its cleavage and activation promote apoptotic cell death (Table 2).[33]
Cell viability was evaluated by XTT[55] (SW480 cells) or MTT[56] (HCT116 cells) colorimetric assays. Briefly, cells (range 10–30 × 10^3 cells/well) were seeded in 96-well microculture plates and then exposed to increasing concentrations of different compounds (range 0–300 μM) for 48 or 72 h. […] Absorbance at 450 nm and a reference wavelength of 650 nm was then measured using a microplate spectrophotometer (Multiskan FC Microplate Photometer, Thermo Scientific, Waltham, MA). The cell growth inhibition rate was calculated utilizing the following formula: inhibition rate (%) = […] × 100, where Control OD is the absorbance of the negative control and Sample OD is the absorbance of the test sample. The IC50 values were determined with GraphPad Prism 5 through constructed dose–response curves.

[1] = test system: β-catenin/Tcf-4 interaction; test: Co-immunoprecipitation of β-catenin and Myc-tagged Tcf-4 in HCT116 cells; assay type: cell-based, human; conditions: HCT116 transfected with Myc-tagged Tcf-4, LiCl 50 mM, 50 μM, 24 h
Protocol: Toward this end, we performed a co-immunoprecipitation study in HCT116 cells transfected with Myc-tagged Tcf-4, treated with the two compounds, and immunoprecipitated with Myc antisera.
HCT116 cells were transiently transfected with the Myc-tagged Tcf-4 plasmid and treated with LiCl (50 mM) and 9 (50 μM) or 10 (50 μM) for 24 h. Lysates were immunoprecipitated using Myc-agarose beads and western blot analysis was performed. […] Myc-agarose beads saturated with the Myc-blocking peptide before immunoprecipitation were used as a negative control.
Co-immunoprecipitation assays were performed as previously described.[16],[60] Briefly, 2 × 10^4/cm^2 HCT116 cells were seeded in a 100 mm dish and incubated overnight at 37 °C. Cells were transfected with pcDNA/Myc Tcf-4 (Addgene plasmid #16512; http://n2t.net/addgene:16512; RRID:Addgene_16512)[29] and, after overnight incubation, were starved for 8 h in a medium containing Opti-MEM (#31985070, Thermo Fisher Scientific), FBS 0.5%, pen/strep 1%, NaPyr 1%, NeAA 1%, and then co-treated with 50 mM LiCl and DMSO or 50 μM compound 9 or 50 μM compound […] for 24 h. Cells were collected at the end of the treatments and lysed in a buffer containing 0.5% Triton X-100, 0.5 mM EDTA, and 1 mM DTT. […] Chemioluminescence was detected using WesternBright ECL (#K-12045-D50, Advansta), according to the manufacturer’s protocol.

O=S(=O)(Nc1ccc(-c2ccccn2)cc1)c1ccc(Br)cc1 [Compound 9, 4-Bromo-N-(4-(pyridin-2-yl)phenyl)benzenesulfonamide]
effect on HCC1937 cell growth (HCC1937 cells): less effective
mRNA levels of Wnt-target genes Fgf20 and Sal4 (Fgf20 and Sal4): strongly inhibited
improvement in SW480 cell growth inhibition compared with 5-FU (SW480 cells): 6 fold
association between β-catenin and Tcf-4 (co-immunoprecipitation) [1]: completely abrogated the association

Source: article PMC10353061 (ACS Pharmacology & Translational Science, 2023)
